{"source": "patent US5395611A", "about": "“Phenolic amine depigmenting and antimelanoma agents” (The Governors of the University of Alberta, priority 1992, dated 1995)", "key": {"[1]": {"system": "mushroom tyrosinase", "experiment": "Enzyme kinetics for tyrosinase", "type": "biochemical", "protocol": "(§1) Mushroom tyrosinase (400 units/mg) and plasma MAO (1000 units/gm) were obtained from Sigma Chemical Co. (St. Louis, Mo., USA). A reaction mixture consisted of a substrate of 7 to 8 different concentrations (40 to 500 μM for mushroom tyrosinase and 20 to 200 μM for MAO) and of either mushroom tyrosinase (2.5 μg) or MAO (10 μg) in 1.0 mL of 0.05M sodium phosphate buffer, pH 6.8 and 7.4 respectively. The reactions were carried out at 37° C. in a shaking water bath, and stopped by taking 100 μL of the reaction mixture and adding it to 900 μL of 0.4M HCLO4. The disappearance of substrate was followed using HPLC (high pressure liquid chromatography) Km and Vmax values were calculated from the Lineweaver-Burk plots.\n^a mushroom tyrosinase; 11 unit/ml of tyrosinase was used. One enzyme\nunit will cause an increase in A280 of 0.001 per min at pH 6.8 at\n25° C. using Ltyrosine as substrate."}, "[2]": {"system": "plasma monoamine oxidase (MAO)", "experiment": "Enzyme kinetics for monoamineoxidase (plasma MAO)", "type": "biochemical", "protocol": "as §1"}, "[3]": {"system": "B16 melanoma", "experiment": "In vivo growth inhibition of s.c. inoculated B16 melanoma", "parameters": "species or system mouse", "conditions": "for % Gi (growth inhibition): 200 mg/Kg", "protocol": "Briefly, excised tumours were homogenized in normal saline.\nThe in vivo antimelanoma effect of the compounds were evaluated by percent growth inhibition of inoculated tumour (% g.i.). The percent g.i. was computed from the mean tumour volume at day 12 or 13 of the experiments; i.e., 100× (1- treated group/control group). Tumour volume was calculated by the following formula:\ntumour volume=long axis×(short axis)^2 ×1/2."}, "[4]": {"system": "B16F10 melanoma colonies", "experiment": "Melanoma-colony formation in the lungs", "type": "in vivo, mouse", "protocol": "Murine B16F10 melanoma cell line with a strong metastatic property to form tumour colonies in the lungs was obtained from Dr. Longenecker, Department of Immunology, University of Alberta. Such cell line is well recognized and readily available as reported in Miura et al, supra. The cells were grown in T-75 flasks in dulbecco's MEM available from Gipco Lab Inc., Grand Island, N.Y., supplemented with 10% fetal calf serum, also obtained from Gipco, penicillin (100 μ/ml) and streptomycin (100 μg/ml). The cells were incubated at 37° C. in humidified atmosphere of 5% CO2 in air. […] Viable cells were identified by trypan blue dye exclusion and counted. The cell suspension was diluted to the desired concentration. […] On day zero, the mice were inoculated via the lateral tail vein with 5×10^4 cells in 0.2 ml of N saline. The test drugs were dissolved in normal saline, sterilized by membrane filtration, and administered in a dose of 300 mg/Kg (4 -S-CAP) or 900 mg/Kg (N-Ac-4-S-CAP); starting on day five, the control solution or drug was injected i.p. daily for 14 days. On day 26, the mice were killed by cervical dislocation, their lungs were removed, and the number of melanoma colonies was counted under a dissecting microscope. The results were expressed as percentage reduction in the number of colonies: [a-b/a]×100, where a=colonies in control group and b=colonies in experimental group."}, "[5]": {"experiment": "Urinary excretion after i.p. injection (metabolic assay)", "type": "in vivo, mice", "conditions": "5.2 mg/mouse", "protocol": "Fifteen mice randomly divided into three groups of five were injected i.p. with a test agent (300 mg/kg) dissolved in N saline solution. Group 1 were injected with 4-S-CAP, group 2 with N-Ac-4-S-CAP, group 3 were controls. The mice are kept in metabolic cages; their urine is collected 3, 8 and 24 hr after injection, and the 4-S-CAP and N-Ac-4-S-CAP content is measured by HPLC in a system consisting of a Waters 600E liquid chromatography, with a Bondapak C18 column (3.0×300 mm; particle size, 10 μm) and a Waters 460 electrochemical detector. Mobile phase: 0.1M potassium phosphate buffer, pH 2.1, containing 0.1 mM Na2 EDTA methanol, 80:20 (v/v); column temperature, 60° C.; flow rate 1.0 ml/min. Urine samples are hydrolysed with 0.1M HCl before assay, and the phenols are detected at 850 mV against an Ag/AgCl reference electrode."}, "[6]": {"system": "black hair follicles", "experiment": "Depigmentation of new hair (eumelanin/PTCA content)", "type": "in vivo, C57BL/6J black mice", "description": "Female progeny were used in this testing when approximately 8 weeks old and weighing 17 grams.\nThirty mice were randomized into 6 groups of 5 (1 control and 1 for each compound). Starting on day 1, daily for 14 days the agent was injected i.p. or was infiltrated s.c. in an area where hair follicles had been plucked; the dose was 300 mg/kg body weight.\nIn the same 30 mice, hair follicles were harvested on day 22 (early telogen phase) and their eumelanin content analyzed. […] Briefly, a 10-mg hair sample is homogenized in water at a concentration of 10 mg/ml; the 200-μl homogenate is transferred to a screw-capped test tube, mixed with 1M H2 SO4 (800 μL) and oxidized with 3% KMnO4. The product, pyrrole-2,3,5-tricarboxylic acid (PTCA), is analyzed by HPLC with a UVL detector; samples are measured in duplicate. The eumelanin content is expressed as PTCA (ng/mg) against the PCTA content of BALB/c albino mice as control (≤10 ng/mg, the background value with our method, in which 1 ng corresponds roughly to a eumelanin content of 50 ng), and the degree of depigmentation is expressed as a percentage: (PTCA content of control sample minus PTCA content of experimental sample)/(PCTA content of control sample)×100."}, "[7]": {"system": "melanocytes", "experiment": "Light and electron microscopy of follicular melanocytes", "type": "in vivo, mice", "conditions": "i.p.", "protocol": "In […] of 4 mice (1 control and 1 for each compound) were treated daily with the control or compound injected i.p. The compounds tested were 4-S-CAP, N-Ac-4-S-CAP and α-Me-4-S-CAP. Samples of skin and regrowing hair follicles were excised under brief general anaesthesia on day 10 (late anagen phase), fixed in Karnovsky's solution (2.5% glutaraldehyde and 2.5% paraformaldehyde in 011M cacodylate buffer), and refixed in 1% osmium tetroxide in cadodylate buffer. Tissues were stained en bloc with 1.5% uranyl acetate in o.1M veronal buffer for 30 min, dehydrated in graded ethanol solutions, embedded in epoxy resin, and sectioned with a Potter-Blum ultramicrotome MT II. Sections 1.0 μm thick were stained with methylene blue for light microscopy, thin sections were stained with led citrate for electron microscopy."}, "[8]": {"system": "plasma monoamine oxidase (MAO)", "conditions": "in words, prior knowledge; cited from earlier work"}, "[9]": {"system": "melanoma", "conditions": "in words; cited from earlier work"}, "[10]": {"system": "black guinea pig skin", "conditions": "topical application, cited from earlier work"}, "[11]": {"system": "follicular melanocytes", "conditions": "in words; cited from earlier work"}, "[12]": {"conditions": "in words; cited from earlier work"}, "[13]": {"conditions": "acute toxicity, evaluated 100 to 1600 mg/Kg (Miura et al); cited from earlier work"}, "[14]": {"conditions": "s.c., 300 mg/kg daily for 14 days, hair day 22"}}, "note": "Values joined by “and” are separate entries in the source; they are usually repeats but may differ in a detail not shown here. Identical values can stand only once. “Also recorded” adds a separate entry of the source.", "data": [{"smiles": "NCCSc1ccc(O)cc1", "note": "[4-S-CAP, 4-S-cysteaminylphenol, reference compound]", "values": [{"measurement": "Substrate for tyrosinase", "setting": "[1]; in words", "value": "substrate for both plasma MAO and tyrosinase"}, {"measurement": "Km", "setting": "[1]; mushroom tyrosinase, pH 6.8, 37° C.", "value": 117, "unit": "µM"}, {"measurement": "Substrate for plasma MAO", "setting": "[2]; in words", "value": "substrate for both plasma MAO and tyrosinase"}, {"measurement": "Km", "setting": "[2]; plasma MAO, pH 7.4, 37° C.", "value": 52.6, "unit": "µM"}, {"measurement": "% Gi (growth inhibition)", "setting": "[3]; Experiment I", "value": 54.0, "unit": "%"}, {"measurement": "% Gi (growth inhibition)", "setting": "[3]; Experiment II", "value": 25.1, "unit": "%"}, {"measurement": "Growth inhibition of B16 melanoma", "setting": "[3]; in words", "value": "greater anti-melanoma effect at 200 mg/Kg than N-Ac-4-S-CAP"}, {"measurement": "Colonies, % control", "setting": "[4]; 300 mg/kg i.p. daily for 14 days, day 26", "value": "32.4% and 30%"}, {"measurement": "Number of B16F10 melanoma colonies", "setting": "[4]; in words", "value": "significantly reduced"}, {"measurement": "Urinary excretion of unchanged compound, amount", "setting": "[5]; 3 h after i.p. injection", "value": "0.399 ± 0.018", "unit": "mg"}, {"measurement": "Urinary excretion of unchanged compound, amount", "setting": "[5]; 8 h after i.p. injection", "value": "0.443 ± 0.023", "unit": "mg"}, {"measurement": "Urinary excretion of unchanged compound, amount", "setting": "[5]; 24 h after i.p. injection", "value": "0.458 ± 0.021", "unit": "mg"}, {"measurement": "dose excreted at 3 h", "setting": "[5]; urine, ip, 300 mg/kg, 3 h after i.p. injection, read-out: Urinary excretion of unchanged compound, % of dose", "value": 7.7, "unit": "%"}, {"measurement": "dose excreted at 8 h", "setting": "[5]; urine, ip, 300 mg/kg, 8 h after i.p. injection, read-out: Urinary excretion of unchanged compound, % of dose", "value": 8.5, "unit": "%"}, {"measurement": "dose excreted at 24 h", "setting": "[5]; urine, ip, 300 mg/kg, 24 h after i.p. injection, read-out: Urinary excretion of unchanged compound, % of dose", "value": 8.8, "unit": "%"}, {"measurement": "Depigmentation", "setting": "[6]; i.p., 300 mg/kg daily for 14 days, hair day 22", "value": 87, "unit": "%"}, {"measurement": "Depigmentation of new growth of black hair follicles", "setting": "[6]; in words", "value": "i.p. administration induced more depigmentation than s.c."}, {"measurement": "Depigmentation", "setting": "[6]; [14]", "value": 47, "unit": "%"}, {"measurement": "PTCA Content", "setting": "[6]; [14]", "value": "458.3 ± 107.6", "unit": "ng/mg"}, {"measurement": "Electron microscopy of melanocytes/melanosomes", "setting": "[7]; 10 days", "value": "contained immature melanosomes at stages II and III"}, {"measurement": "Light microscopy of hair follicles", "setting": "[7]; day 10", "value": "the hair follicles contained functioning melanocytes and melanin pigments transferred into keratonocytes, although they were much sparser than in the controls"}, {"measurement": "Substrate for plasma MAO (converted into aldehyde form)", "setting": "[8]", "value": "substrate for monoamineoxidase (MAO); also recorded: substrate not only for tyrosinase, but also for plasma monoamineoxidase (MAO)"}, {"measurement": "Inhibition of melanoma growth", "setting": "[9]", "value": "exhibited inhibition of melanoma growth"}, {"measurement": "Prolonging lifespan of melanoma-bearing mice", "setting": "[9]", "value": "potent agent in prolonging the lifespan of melanoma-bearing mice"}, {"measurement": "Inflammatory changes of the skin", "setting": "[10]; guinea pigs", "value": "inflammatory changes of the skin of the guinea pigs was prominent"}, {"measurement": "Depigmentation of black guinea pig skin", "setting": "[10]", "value": "demonstrated depigmenting properties"}, {"measurement": "Effect on albino follicles", "setting": "[11]", "value": "no effect on the albino follicles"}, {"measurement": "Effect on black hair follicles / black hair", "setting": "[11]", "value": "demonstrated cytotoxicity in the depigmentation of black hair follicles; also recorded: depigmentation of black hair as manifested by loss of functioning melanocytes"}, {"measurement": "Hypotensive effect", "setting": "[12]", "value": "hypotensive"}, {"measurement": "Lethal dose", "setting": "[13]", "value": 400, "unit": "mg/kg"}]}]}
